We go through eight compounds from ChEMBL document CHEMBL5465560, “Selectivity Literature for EUbOPEN Chemogenomic Library” (2024).

Assay [1] addresses T1, Phosphatidylinositol 5-phosphate 4-kinase type-2 alpha (Homo sapiens) (UniProt P48426).
T1 sequence (whole entry): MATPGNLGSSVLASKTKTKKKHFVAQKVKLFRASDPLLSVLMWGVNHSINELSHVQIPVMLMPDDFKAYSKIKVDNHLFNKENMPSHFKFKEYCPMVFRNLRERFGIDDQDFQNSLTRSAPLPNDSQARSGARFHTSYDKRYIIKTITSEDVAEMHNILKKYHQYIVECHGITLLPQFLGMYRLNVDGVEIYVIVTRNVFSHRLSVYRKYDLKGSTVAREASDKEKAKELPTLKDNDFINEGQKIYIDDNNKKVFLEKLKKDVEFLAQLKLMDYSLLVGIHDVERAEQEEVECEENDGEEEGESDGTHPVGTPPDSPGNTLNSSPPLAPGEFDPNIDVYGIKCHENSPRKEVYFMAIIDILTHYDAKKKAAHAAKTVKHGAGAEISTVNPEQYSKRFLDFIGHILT
Put plainly: Selectivity interaction (Kinase panel (KiNativ target engagement assay in Jurkat cells)) EUB0001635a PIP4K2A. It counts as cell-based. The settings on record: Selectivity number of off-targets 0.0, Selectivity number of targets 233.0, Source Knowledge https://www.sciencedirect.com/science/article/pii/S2451945619300674?via%3Dihub, at 1 µM.

Assay [2] addresses Tyrosine-protein kinase receptor Tie-1 (Homo sapiens) (UniProt P35590). The assay can be described thus: Selectivity interaction (Ambit KINOMEscan and KiNATiv profiling in Jurkat cells) EUB0000090b TIE1. Type of assay: cell-based. The settings on record: at 1 µM.
The target of assay [3] is Serine/threonine-protein kinase MRCK alpha (Homo sapiens) (UniProt Q5VT25). The settings on record: at 10 µM.
Serine/threonine-protein kinase MRCK alpha (Homo sapiens), sequence (Q5VT25 whole entry): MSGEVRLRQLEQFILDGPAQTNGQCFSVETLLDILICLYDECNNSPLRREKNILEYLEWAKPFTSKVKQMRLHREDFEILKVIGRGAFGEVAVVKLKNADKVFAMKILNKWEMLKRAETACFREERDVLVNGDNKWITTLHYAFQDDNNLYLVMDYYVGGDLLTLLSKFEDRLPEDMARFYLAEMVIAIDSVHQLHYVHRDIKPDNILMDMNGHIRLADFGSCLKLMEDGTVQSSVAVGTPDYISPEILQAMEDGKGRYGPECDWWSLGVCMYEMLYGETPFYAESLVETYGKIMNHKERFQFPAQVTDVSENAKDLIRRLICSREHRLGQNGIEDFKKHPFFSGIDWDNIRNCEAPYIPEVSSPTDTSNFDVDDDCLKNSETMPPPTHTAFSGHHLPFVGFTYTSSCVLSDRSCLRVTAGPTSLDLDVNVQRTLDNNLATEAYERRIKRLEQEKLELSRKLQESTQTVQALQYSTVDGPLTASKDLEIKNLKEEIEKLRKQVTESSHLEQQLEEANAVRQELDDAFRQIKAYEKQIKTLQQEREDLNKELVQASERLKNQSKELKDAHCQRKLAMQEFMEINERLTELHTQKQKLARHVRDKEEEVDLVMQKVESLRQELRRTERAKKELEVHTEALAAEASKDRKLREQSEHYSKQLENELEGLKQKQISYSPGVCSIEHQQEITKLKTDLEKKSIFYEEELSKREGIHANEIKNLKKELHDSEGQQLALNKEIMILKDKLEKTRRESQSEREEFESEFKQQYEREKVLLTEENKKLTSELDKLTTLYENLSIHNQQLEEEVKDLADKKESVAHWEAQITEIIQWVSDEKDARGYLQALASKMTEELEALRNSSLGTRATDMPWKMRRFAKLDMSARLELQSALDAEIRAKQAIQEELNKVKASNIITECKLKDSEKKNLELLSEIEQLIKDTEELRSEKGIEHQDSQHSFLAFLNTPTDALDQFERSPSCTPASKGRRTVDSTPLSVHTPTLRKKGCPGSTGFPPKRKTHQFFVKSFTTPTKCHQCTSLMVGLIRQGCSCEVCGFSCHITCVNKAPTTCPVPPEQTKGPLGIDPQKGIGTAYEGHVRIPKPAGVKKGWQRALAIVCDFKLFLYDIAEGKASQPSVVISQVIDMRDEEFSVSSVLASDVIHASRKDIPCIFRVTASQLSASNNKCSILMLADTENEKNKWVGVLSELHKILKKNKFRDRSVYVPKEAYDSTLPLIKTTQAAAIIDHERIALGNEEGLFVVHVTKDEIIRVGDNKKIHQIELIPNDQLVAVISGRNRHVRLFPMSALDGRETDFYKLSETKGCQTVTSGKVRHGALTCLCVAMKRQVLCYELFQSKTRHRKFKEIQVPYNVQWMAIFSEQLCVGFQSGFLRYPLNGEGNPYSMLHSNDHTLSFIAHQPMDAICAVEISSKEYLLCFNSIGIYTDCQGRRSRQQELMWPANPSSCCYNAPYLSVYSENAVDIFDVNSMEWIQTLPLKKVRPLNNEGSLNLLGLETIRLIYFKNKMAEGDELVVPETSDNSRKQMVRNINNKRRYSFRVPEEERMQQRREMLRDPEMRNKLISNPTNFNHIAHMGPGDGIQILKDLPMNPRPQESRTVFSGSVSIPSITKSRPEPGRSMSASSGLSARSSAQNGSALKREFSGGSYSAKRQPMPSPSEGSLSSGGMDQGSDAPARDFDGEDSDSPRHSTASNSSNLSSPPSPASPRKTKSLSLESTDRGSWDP
In assay [4] the target is Calcium/calmodulin-dependent protein kinase type 1B (Homo sapiens) (UniProt Q6P2M8). Put plainly: Selectivity interaction (KinomeScan (DiscoverX)) EUB0000229b PNCK. The settings on record: at 10 µM.
Calcium/calmodulin-dependent protein kinase type 1B (Homo sapiens), sequence (Q6P2M8 whole entry): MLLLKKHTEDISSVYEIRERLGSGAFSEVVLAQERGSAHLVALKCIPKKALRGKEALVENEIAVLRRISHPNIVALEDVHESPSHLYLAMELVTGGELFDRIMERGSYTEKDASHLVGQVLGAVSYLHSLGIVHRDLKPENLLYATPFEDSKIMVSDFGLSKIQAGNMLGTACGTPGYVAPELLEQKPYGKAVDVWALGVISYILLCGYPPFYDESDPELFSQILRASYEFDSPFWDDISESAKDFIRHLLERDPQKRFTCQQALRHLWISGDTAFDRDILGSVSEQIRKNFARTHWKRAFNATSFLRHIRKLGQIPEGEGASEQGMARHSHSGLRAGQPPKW
Assay [5] concerns the target T2, Protein kinase C epsilon type (Homo sapiens) (UniProt Q02156).
T2 sequence (whole entry): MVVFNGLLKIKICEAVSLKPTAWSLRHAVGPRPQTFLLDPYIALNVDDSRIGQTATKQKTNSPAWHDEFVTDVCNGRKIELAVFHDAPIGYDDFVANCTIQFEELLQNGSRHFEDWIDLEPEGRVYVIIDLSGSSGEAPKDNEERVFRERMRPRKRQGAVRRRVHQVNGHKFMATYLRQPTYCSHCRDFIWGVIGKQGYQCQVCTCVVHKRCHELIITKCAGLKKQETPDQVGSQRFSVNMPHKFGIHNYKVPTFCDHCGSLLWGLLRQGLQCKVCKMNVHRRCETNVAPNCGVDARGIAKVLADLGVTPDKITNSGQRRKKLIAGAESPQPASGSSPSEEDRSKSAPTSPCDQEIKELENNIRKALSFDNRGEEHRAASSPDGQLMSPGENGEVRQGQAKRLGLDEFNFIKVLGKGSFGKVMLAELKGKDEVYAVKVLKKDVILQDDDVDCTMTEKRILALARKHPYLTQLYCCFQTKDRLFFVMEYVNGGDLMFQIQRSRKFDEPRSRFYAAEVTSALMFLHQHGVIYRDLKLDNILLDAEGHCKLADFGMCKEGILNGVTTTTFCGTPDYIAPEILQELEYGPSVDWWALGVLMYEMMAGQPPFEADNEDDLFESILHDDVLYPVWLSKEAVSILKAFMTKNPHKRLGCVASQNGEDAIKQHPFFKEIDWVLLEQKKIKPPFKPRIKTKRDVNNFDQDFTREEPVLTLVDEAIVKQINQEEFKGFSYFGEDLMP
Put plainly: Selectivity interaction (KinomeScan (DiscoverX)) EUB0001079a PRKCE. The settings on record: at 1 µM.

Assay [6] has as its system Tyrosine-protein kinase ABL1 (Homo sapiens), P00519 [M351T]. The settings on record: at 10 µM.
Assay [7] concerns the target T3, Serine/threonine-protein kinase 17A (Homo sapiens) (UniProt Q9UEE5).
T3 sequence (whole entry): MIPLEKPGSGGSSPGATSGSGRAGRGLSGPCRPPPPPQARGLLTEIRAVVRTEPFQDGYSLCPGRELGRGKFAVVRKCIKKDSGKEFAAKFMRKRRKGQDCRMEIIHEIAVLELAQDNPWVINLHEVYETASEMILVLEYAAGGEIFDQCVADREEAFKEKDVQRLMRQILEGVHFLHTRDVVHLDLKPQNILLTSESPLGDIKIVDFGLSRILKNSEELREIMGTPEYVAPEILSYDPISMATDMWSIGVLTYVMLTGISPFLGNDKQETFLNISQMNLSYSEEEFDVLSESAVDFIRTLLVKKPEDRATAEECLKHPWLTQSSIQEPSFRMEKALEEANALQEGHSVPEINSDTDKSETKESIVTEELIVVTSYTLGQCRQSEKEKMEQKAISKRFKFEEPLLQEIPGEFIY
The note with it: at 10 µM.

In assay [8] the target is Casein kinase I isoform epsilon (Homo sapiens, UniProt P49674). Put plainly: Selectivity interaction (KinomeScan (DiscoverX)) EUB0000045b CSNK1E.
Casein kinase I isoform epsilon, sequence (P49674 whole entry, looked up, canonical isoform): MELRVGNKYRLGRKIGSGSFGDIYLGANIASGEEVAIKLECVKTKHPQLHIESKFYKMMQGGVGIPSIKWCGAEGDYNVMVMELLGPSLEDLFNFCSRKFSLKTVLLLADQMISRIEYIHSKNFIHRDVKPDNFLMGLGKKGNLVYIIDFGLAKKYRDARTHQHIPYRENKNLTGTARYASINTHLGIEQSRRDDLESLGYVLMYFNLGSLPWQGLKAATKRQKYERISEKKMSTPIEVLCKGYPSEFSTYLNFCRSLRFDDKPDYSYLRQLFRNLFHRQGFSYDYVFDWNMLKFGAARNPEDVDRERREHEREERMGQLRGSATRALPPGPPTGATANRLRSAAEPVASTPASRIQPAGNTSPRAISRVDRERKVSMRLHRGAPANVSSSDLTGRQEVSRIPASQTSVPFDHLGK
In assay [9] the target is T4, Serine/threonine-protein kinase Sgk3 (Homo sapiens) (UniProt Q96BR1).
T4 sequence (whole entry): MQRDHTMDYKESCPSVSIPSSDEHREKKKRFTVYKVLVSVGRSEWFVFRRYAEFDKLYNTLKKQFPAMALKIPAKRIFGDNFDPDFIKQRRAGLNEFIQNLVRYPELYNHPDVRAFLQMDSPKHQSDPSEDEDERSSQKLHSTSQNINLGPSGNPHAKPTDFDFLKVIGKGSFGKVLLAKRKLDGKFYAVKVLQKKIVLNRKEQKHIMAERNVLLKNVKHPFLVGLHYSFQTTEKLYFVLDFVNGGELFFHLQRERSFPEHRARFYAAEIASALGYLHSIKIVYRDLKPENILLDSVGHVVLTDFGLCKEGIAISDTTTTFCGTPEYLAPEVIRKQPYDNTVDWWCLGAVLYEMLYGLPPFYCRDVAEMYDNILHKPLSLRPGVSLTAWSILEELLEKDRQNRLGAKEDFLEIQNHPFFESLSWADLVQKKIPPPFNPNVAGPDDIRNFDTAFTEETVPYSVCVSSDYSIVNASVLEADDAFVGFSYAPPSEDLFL
The assay can be described thus: Selectivity interaction (Upstate Kinase Profiler service (Millipore)) EUB0000056c SGK3. The settings on record: at 1 µM.

Each structure is given as a SMILES string.

Tyrosine-protein kinase receptor Tie-1 (Homo sapiens), sequence (P35590 whole entry): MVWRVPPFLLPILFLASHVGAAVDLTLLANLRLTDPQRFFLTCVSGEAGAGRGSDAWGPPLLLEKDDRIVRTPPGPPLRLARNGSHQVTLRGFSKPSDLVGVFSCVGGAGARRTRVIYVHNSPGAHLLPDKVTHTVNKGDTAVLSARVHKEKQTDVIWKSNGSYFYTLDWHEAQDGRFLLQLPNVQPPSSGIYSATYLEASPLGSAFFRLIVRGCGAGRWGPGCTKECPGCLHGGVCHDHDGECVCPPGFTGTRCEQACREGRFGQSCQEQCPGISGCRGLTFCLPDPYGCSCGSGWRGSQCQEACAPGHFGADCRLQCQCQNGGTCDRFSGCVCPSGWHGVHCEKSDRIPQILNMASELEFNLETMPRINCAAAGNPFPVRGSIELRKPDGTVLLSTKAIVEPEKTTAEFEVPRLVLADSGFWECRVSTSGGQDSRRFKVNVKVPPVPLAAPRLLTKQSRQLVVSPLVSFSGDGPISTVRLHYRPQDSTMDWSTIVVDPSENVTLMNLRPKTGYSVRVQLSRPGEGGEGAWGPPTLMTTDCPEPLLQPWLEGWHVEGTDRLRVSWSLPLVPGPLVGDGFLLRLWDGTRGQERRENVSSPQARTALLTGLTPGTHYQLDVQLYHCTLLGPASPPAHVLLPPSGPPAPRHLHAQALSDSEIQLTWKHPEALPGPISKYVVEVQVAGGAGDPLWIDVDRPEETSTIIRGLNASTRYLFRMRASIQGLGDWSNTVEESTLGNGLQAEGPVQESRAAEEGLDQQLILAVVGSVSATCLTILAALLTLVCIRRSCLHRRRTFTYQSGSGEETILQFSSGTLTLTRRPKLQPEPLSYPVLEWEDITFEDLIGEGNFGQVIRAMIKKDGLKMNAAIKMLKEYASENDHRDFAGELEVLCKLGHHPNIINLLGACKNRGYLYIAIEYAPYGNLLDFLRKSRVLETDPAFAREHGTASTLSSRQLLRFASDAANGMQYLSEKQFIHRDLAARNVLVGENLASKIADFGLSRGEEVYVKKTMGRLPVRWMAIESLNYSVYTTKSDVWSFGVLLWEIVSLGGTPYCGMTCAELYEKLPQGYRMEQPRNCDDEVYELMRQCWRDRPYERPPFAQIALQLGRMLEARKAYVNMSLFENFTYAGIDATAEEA

With `C=CC(=O)Nc1ccc(C(=O)Nc2[nH]nc3c2CN(C(=O)N[C@H](CN(C)C)c2ccccc2)C3(C)C)cc1`, the % of engagement in assay [1] is -3.2%. Turning to `CN(C)C/C=C/C(=O)Nc1ccc(C(=O)N2CCCC(Nc3ncc(Cl)c(-c4c[nH]c5ccccc45)n3)C2)cc1` (stereo not given), the % of control in [2] was 96%. Turning to `Cc1cc([C@@H](C)Nc2ccccc2C(=O)O)c2nc(N3CCOCC3)cc(=O)n2c1` [AZD-6482], in assay [3], the % of control worked out at 96%. For the compound `COc1cc(N(C)c2ccnc3ccc(C(F)(F)F)cc23)cc(OC)c1OC`, in [4], the % binding was determined as 98%. Turning to `Nc1cnc(N2CCc3cc(S(=O)(=O)Nc4c(F)cc(Cl)cc4F)cc(N4CCCC4=O)c32)nc1` [TP-020n], the % of control in assay [5] worked out at 100%. On to `CCN(CC)CCCCNc1ncc2cc(-c3cc(OC)cc(OC)c3)c(NC(=O)NC(C)(C)C)nc2n1`, for which the % of control in assay [6] and in assay [7] was 100% each time.

For `C=CC(=O)Nc1cc(-n2c(=O)ccc3cnc4ccc(-c5ccc(NS(C)(=O)=O)cc5)cc4c32)ccc1C`, the % of control in [8] (at 1 µM) and in [8] (at 10 µM) was 100% in each case. Take `Cc1ccc(-c2ccc3c(ccc4sc5c(c43)NC[C@@H](C)NC5=O)n2)cn1`: in [9], the % of inhibition was -1%.
